This is an account of results in patent US20130225578A1, “7-CYCLYLQUINAZOLINE DERIVATIVES AND METHODS OF USE THEREOF” (AMBIT BIOSCIENCES CORPORATION, priority 2010, published 2013).

Molecules are shown by their SMILES. Bounds are passed on as bounds.

For assay [1], the system named is distinct kinases tested excluding mutant variants, typically 359 or 386 kinases. The assay is described as follows: Kinase panel competition binding, selectivity score. The note with it: compound at 10 μM; fraction of kinases with inhibition of 90% or greater. How it is done: (§1) Competition binding assays used herein were developed, validated and performed as described in Fabian et al., Nature Biotechnology 2005, 23, 329-336. Kinases were produced as fusions to T7 phage (See, Fabian et al. or WO04/015142) or alternatively, the kinases were expressed in HEK-293 cells and subsequently tagged with DNA for PCR detection (See, WO08/005,310). For the binding assays, streptavidin-coated magnetic beads were treated with biotinylated affinity ligands for […] at rt to generate affinity resins. The liganded beads were blocked with excess biotin and washed with blocking buffer (SeaBlock (Pierce), 1% BSA, 0.05% Tween 20, 1 mM DTT) to remove unbound ligand and to reduce non-specific binding. Binding reactions were assembled by combining kinase, liganded affinity beads, and test compounds in 1× binding buffer (20% SeaBlock, 0.17×PBS, 0.05% Tween 20, 6 mM DTT). Test compounds were prepared as 100× stocks in DMSO and rapidly diluted into the aqueous environment. DMSO was added to control assays lacking a test compound. Primary screen interactions were performed in polypropylene 384-well plates in a final volume of 34 μL, while Kd determinations were performed in polystyrene 96-well plates in a final volume of 135 μL. The assay plates were incubated at room temperature with shaking for 1 hour, long enough for binding reactions to reach equilibrium, and the affinity beads were washed extensively with wash buffer (1×PBS, 0.05% Tween 20) to remove unbound protein. The beads were then resuspended in elution buffer (1×PBS, 0.05% Tween 20, 2 μM non-biotinylated affinity ligand) and incubated at room temperature with shaking for 30 min. The kinase concentration in the eluates was measured by quantitative PCR. Each kinase was tested individually against each compound. Kds were determined using eleven serial threefold dilutions. A selectivity score, which is a quantitative measure of selectivity of a compound against a panel of enzymes, may be calculated for a compound by dividing the number of enzymes for which a compound meets a set criteria, (for example, a binding constant of 100 nM or less), by the total number of enzymes tested.

In a further assay the target is T1, JAK2 (Homo sapiens, UniProt O60674).
T1 construct: made in house; host or cells: T7 phage display or HEK-293 cells (alternatives)
Kind of assay: Competition binding assay, JAK2. How it is done: as §1

In the next assay the target is T2, JAK3 (Homo sapiens, UniProt P52333).
T2 construct: made in house; host or cells: T7 phage display or HEK-293 cells (alternatives)
T2 sequence (P52333 1-1124): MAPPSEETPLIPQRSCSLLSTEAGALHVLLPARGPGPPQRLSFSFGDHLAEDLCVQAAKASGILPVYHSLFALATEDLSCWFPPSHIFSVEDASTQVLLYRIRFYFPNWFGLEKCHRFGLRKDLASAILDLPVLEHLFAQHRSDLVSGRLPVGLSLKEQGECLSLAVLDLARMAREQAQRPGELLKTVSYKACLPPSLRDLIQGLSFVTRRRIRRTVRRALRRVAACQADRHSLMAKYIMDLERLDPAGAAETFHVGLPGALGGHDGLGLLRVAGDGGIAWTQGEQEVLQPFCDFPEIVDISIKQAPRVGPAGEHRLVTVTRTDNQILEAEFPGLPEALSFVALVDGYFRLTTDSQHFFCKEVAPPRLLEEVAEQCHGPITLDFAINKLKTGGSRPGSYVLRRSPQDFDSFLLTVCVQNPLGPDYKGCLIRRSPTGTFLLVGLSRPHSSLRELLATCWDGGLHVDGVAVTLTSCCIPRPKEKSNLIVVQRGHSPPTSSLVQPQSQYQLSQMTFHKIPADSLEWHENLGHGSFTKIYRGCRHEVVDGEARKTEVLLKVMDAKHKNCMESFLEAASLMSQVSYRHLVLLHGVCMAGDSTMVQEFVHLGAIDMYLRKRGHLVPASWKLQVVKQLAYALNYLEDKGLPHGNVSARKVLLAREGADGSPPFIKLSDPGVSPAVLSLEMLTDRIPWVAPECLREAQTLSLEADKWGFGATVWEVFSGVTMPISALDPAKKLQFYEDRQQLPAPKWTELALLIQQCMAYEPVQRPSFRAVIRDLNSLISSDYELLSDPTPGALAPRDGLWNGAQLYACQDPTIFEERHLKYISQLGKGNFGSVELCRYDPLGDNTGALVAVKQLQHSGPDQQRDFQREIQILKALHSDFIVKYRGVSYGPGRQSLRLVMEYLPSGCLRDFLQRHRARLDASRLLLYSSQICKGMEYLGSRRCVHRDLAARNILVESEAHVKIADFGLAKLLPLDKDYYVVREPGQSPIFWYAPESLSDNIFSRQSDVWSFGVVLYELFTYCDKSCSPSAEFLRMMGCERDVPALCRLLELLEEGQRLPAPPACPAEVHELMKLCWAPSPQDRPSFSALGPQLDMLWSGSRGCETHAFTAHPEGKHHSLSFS
Kind of assay: Competition binding assay, JAK3. How it is done: as §1

Assay [2] has as its system GM-CSFR/JAK2/STAT5 pathway. The assay is described as follows: CSTF-1 cell-based reporter assay (beta-lactamase reporter, GM-CSF stimulated). The note with it: Homo sapiens; csTF-1 cells, GM-CSF 2 ng/mL, 4 hours; read-out: Cell Assay: CS TF-1 reporter assay IC50. How it is done:
CSTF-1 cells are derived from the human erythroleukemia cell line that is growth dependent on GM-CSF and has an intact GM-CSFR/JAK2/STAT5 pathway. The cell line contains stably integrated beta-lactamase reporter gene under the control of the […] (irf 1) response element recognized by the activated transcription factor STAT5. csTF-1 cells (Invitrogen K1219) were washed with assay media (97% OPTIMEM/0.5% dialyzed FBS/0.1 mM NEAA/1 mM Na pyr/P/S) and seeded in the same media at 5×10^5 cell/mL in T150 flask. After 16 hour incubation, cells were seeded at 2×10^5 cell/well in 50 jtl volume, into Costar, clear bottom, 96-well assay plates. Serial dilutions of compounds were added to the plates with final DMSO concentration at 0.5% and GM-CSF at 2 ng/mL and the plates were then incubated at 30° C. and 5% CO2 for 4 hours. The plates were brought to room temperature before adding Substrate Mixture according to manufacturer's protocol (Invitrogen, Catalog #K1085). The assay plates containing the substrate mixture were incubated in the dark at room temperature for 2 hours. Blue and green fluorescence was measured with excitation at 409 nm and emission at 460 nm (for blue) and excitation at 409 nm and emission at 530 nm (for green) using Spectra Max Gemini EM.

A further assay concerns the target T3, TYK2 (Homo sapiens, UniProt P29597).
T3 construct: made in house; host or cells: T7 phage display or HEK-293 cells (alternatives)
Kind of assay: Competition binding assay, TYK2. How it is done:
as §1

T1 sequence (O60674 whole entry): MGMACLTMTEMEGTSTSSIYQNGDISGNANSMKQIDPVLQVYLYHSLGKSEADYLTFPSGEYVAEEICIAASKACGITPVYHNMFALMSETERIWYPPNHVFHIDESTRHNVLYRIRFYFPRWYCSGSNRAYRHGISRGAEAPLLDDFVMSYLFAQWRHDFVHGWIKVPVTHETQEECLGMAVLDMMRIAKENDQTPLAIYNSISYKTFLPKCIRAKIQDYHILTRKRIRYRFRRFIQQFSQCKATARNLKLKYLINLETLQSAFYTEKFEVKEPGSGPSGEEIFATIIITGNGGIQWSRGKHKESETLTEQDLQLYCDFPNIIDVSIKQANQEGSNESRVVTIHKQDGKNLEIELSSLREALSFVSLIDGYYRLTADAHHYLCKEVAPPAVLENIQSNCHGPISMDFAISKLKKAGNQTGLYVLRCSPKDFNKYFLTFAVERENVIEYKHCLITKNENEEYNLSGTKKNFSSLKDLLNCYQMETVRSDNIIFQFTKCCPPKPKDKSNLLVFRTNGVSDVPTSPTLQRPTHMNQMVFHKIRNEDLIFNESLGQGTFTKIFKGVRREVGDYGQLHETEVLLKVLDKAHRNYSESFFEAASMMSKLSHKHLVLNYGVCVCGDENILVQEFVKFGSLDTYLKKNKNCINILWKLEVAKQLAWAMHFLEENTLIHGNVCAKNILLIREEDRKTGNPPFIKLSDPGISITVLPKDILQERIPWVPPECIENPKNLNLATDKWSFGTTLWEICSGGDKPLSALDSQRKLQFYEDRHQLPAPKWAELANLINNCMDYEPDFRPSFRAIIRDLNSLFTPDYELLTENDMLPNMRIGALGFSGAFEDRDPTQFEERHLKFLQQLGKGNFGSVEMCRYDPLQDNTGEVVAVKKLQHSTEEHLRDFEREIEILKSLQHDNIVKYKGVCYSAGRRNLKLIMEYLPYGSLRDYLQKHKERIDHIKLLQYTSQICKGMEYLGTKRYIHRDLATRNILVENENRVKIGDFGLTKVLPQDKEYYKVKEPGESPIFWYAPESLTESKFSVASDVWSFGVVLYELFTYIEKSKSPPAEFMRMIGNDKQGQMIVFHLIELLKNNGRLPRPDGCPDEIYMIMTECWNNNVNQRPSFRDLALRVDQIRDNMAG
T3 sequence (P29597 whole entry): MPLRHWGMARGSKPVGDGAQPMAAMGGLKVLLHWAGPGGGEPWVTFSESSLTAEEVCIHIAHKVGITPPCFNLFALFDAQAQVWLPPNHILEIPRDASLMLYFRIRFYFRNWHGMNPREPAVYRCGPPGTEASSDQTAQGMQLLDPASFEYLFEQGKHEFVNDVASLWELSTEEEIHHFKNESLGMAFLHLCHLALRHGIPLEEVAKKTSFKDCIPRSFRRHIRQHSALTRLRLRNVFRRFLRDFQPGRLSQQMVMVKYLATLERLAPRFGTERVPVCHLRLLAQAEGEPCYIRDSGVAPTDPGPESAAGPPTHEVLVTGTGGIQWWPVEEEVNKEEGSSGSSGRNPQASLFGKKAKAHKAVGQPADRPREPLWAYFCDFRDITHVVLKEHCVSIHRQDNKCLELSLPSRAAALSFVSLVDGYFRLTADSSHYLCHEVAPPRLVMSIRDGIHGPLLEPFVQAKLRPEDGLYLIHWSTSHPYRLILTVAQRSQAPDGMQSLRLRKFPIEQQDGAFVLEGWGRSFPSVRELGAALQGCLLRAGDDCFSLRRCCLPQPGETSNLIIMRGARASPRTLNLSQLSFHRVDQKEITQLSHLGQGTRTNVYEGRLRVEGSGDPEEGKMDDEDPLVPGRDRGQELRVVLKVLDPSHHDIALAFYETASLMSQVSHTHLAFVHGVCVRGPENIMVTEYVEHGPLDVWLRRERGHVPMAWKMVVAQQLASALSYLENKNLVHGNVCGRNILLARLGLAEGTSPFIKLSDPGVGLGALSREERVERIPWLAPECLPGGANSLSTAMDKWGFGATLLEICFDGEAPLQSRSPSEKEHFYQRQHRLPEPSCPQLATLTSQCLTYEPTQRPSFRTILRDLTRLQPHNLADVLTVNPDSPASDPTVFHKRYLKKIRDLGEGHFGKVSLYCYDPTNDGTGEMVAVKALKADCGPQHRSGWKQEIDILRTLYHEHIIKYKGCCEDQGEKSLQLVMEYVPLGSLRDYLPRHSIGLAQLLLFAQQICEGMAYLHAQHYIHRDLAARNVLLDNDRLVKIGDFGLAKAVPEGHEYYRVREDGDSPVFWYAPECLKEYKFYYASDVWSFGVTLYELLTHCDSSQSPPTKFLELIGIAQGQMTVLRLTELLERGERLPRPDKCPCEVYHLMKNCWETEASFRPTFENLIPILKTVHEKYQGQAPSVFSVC

Take `Cc1cc(Nc2nc(C(F)(F)c3ccc(F)cc3)nc3cc(C4=CCOCC4)ccc23)n[nH]1` [Example 4, 2-(difluoro(4-fluorophenyl)methyl)-7-(3,6-dihydro-2H-pyran-4-yl)-N-(5-methyl-1H-pyrazol-3-yl)quinazolin-4-amine]: in assay [1], the “S-Score: S(10) at 10 μM” value is “A (A≦0.3)”. Besides, the Kd at JAK2 is 1 to 10 nM; on JAK3 it was ≤ 10 nM; on TYK2, ≤ 10 nM. Also, in assay [2], the IC50 was in the range of 100 to 500 nM.
In the case of `Cc1cc(Nc2nc(C(F)(F)c3ccc(F)cc3)nc3cc(-c4cncnc4)ccc23)n[nH]1` [Example 2, 2-(difluoro(4-fluorophenyl)methyl)-N-(5-methyl-1H-pyrazol-3-yl)-7-(pyrimidin-5-yl)quinazolin-4-amine], the “S-Score: S(10) at 10 μM” value in assay [1] is “A (A≦0.3)”. Further, the Kd on JAK2 is ≤ 1 nM; on JAK3 it was ≤ 10 nM; at TYK2, ≤ 10 nM. Moreover, in assay [2], the IC50 is ≤ 100 nM.
As for `Cc1cc(Nc2nc(C(F)(F)c3ccc(F)cc3)nc3cc(N4C[C@H](O)CC4=O)ccc23)n[nH]1` [Example 7, (R)-1-(2-(difluoro(4-fluorophenyl)methyl)-4-(5-methyl-1H-pyrazol-3-ylamino)quinazolin-7-yl)-4-hydroxypyrrolidin-2-one], in assay [1], the “S-Score: S(10) at 10 μM” value is reported as “D (D>0.5)”. Further, the Kd at JAK2 is ≤ 1 nM; on JAK3, ≤ 10 nM; at TYK2, ≤ 10 nM. Also, the IC50 in assay [2] was in the range of 100 to 500 nM.
In the case of `Cc1cc(Nc2nc(C(F)(F)c3ccc(F)cc3)nc3cc(-c4ccccc4O)ccc23)n[nH]1` [Example 5, 2-(2-(difluoro(4-fluorophenyl)methyl)-4-(5-methyl-1H-pyrazol-3-ylamino)quinazolin-7-yl)phenol], in assay [1], the “S-Score: S(10) at 10 μM” value was “A (A≦0.3)”. The Kd was 1 to 10 nM at JAK2, 10 to 100 nM at JAK3 and 10 to 100 nM at TYK2. Moreover, the IC50 in assay [2] fell in the range of 100 to 500 nM.
For the compound `Cc1cc(Nc2nc(C(F)(F)c3ccc(F)cc3)nc3cc(C4(O)COC4)ccc23)n[nH]1` [Example 3, 3-(2-(difluoro(4-fluorophenyl)methyl)-4-(5-methyl-1H-pyrazol-3-ylamino)quinazolin-7-yl)oxetan-3-ol], the “S-Score: S(10) at 10 μM” value in assay [1] is “D (D>0.5)”. The results for the Kd at JAK2, on JAK3 and on TYK2 were ≤ 1 nM, ≤ 10 nM and ≤ 10 nM, respectively. In addition, the IC50 in assay [2] is ≤ 100 nM.
For the compound `Cc1cc(Nc2nc(C(F)(F)c3ccc(F)cc3)nc3cc(-c4c(C)noc4C)ccc23)n[nH]1` [Example 6, 2-(difluoro(4-fluorophenyl)methyl)-7-(3,5-dimethylisoxazol-4-yl)-N-(5-methyl-1H-pyrazol-3-yl)quinazolin-4-amine], in assay [1], the “S-Score: S(10) at 10 μM” value is on record as “B (0.3≦B≦0.4)”. Also, the dissociation constant Kd at JAK2 was 1 to 10 nM; on JAK3, ≤ 10 nM; at TYK2 it was ≤ 10 nM. The IC50 in assay [2] was 100 to 500 nM.
Take `Cc1cc(Nc2nc(C(F)(F)c3ccc(F)cc3)nc3cc(-c4cnn(C)c4)ccc23)n[nH]1` [Example 1, 2-(difluoro(4-fluorophenyl)methyl)-N-(5-methyl-1H-pyrazol-3-yl)-7-(1-methyl-1H-pyrazol-4-yl)quinazolin-4-amine]: the “S-Score: S(10) at 10 μM” value in assay [1] was “A (A≦0.3)”. Moreover, the values for the Kd on JAK2, at JAK3 and at TYK2 were ≤ 1 nM, ≤ 10 nM and ≤ 10 nM, respectively. Besides, the half-inhibitory concentration (IC50) in assay [2] is ≤ 100 nM.
In the case of `Cc1cc(Nc2nc(C(F)(F)c3ccc(F)cc3)nc3cc(CN4CCOCC4)ccc23)n[nH]1` [Example 8, 2-(difluoro(4-fluorophenyl)methyl)-N-(5-methyl-1H-pyrazol-3-yl)-7-(morpholinomethyl)quinazolin-4-amine], in assay [1], the “S-Score: S(10) at 10 μM” value was “D (D>0.5)”. For the same compound, the figures for the Kd on JAK2, on JAK3 and at TYK2 were ≤ 1 nM, ≤ 10 nM and ≤ 10 nM, respectively. In assay [2], the IC50 was ≤ 100 nM.
